Test results taken from patent publication US20260102501A1, “ANTI-CANCER NUCLEAR HORMONE RECEPTOR-TARGETING COMPOUNDS” (Nuvation Bio Inc., priority 2022, published 2026).
Positions count from the first letter of the chain named. Counter-ions that a name gives are not always drawn. Like-named read-outs stand apart in the source and are kept apart here.

What was measured:
[1] = biological target: T1, AR (cytosol from LnCaP cells) (Homo sapiens, UniProt P10275, T878A); assay: AR binding assay (3H-R1881 displacement)
T1 sequence (P10275 1-920 T878A): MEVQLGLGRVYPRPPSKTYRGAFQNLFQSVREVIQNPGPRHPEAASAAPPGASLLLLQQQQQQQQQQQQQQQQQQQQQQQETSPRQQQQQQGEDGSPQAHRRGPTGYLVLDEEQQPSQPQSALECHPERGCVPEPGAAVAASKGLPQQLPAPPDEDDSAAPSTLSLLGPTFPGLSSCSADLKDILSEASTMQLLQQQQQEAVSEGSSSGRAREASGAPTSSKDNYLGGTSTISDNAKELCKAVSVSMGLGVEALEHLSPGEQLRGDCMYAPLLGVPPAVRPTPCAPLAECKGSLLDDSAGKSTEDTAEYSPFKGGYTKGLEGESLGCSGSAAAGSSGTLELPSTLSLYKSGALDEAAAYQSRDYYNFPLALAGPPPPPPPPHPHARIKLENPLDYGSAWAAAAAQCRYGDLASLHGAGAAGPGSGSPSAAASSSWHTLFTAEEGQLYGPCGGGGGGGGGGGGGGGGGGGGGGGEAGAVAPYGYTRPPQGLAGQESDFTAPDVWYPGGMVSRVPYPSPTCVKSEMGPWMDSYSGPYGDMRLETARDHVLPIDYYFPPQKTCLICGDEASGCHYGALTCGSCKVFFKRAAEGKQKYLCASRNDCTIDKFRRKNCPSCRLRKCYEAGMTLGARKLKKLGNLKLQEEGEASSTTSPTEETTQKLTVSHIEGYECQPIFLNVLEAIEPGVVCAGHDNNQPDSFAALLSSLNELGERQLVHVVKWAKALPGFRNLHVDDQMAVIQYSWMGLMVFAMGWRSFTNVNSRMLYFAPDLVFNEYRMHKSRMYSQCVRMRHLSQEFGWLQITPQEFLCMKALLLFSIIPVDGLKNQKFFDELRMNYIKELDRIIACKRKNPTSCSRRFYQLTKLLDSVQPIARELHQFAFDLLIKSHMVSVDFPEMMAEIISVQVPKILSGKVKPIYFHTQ
Method: The plate was then centrifuged at 3000 rpm for 30 minutes at 4° C.

[2] = system: IEC6 cells; assay: Cell viability assay (CellTiterGlo); settings: Rattus norvegicus, IEC-6, 144 h, read-out: IEC-6 (IC50, nM)
[3] = system: 22Rv1 cells; assay: Cell viability assay (CellTiterGlo); settings: Homo sapiens, 22Rv1, 144 h, read-out: 22RV1 (IC50, nM)
[4] = biological target: T2, full-length androgen receptor (HEK293 cells stably expressing) (Homo sapiens, UniProt P10275); assay: AR antagonism assay (luciferase reporter)
T2 sequence (P10275 1-920): T1 sequence (P10275 1-920 T878A) with A878T

[5] = system: LNCap cells; assay: Cell viability assay (CellTiterGlo); type: cell-based; settings: Homo sapiens, 144 h
[6] = 6 days incubation, CellTiterGlo, read-out: LNCap (IC50)

Structure (SMILES) | IC50 [1] [µM] | IC50 [2] [nM] | IC50 [3] [nM] | IC50 [4] [µM] | IC50 ([5]; read-out: LNCap (IC50, nM)) [nM] | IC50 [5, 6] [nM]
CC[C@@]1(O)C(=O)OCc2c1cc1n(c2=O)Cc2cc3c(CN(C)C)c(OC(=O)N4C[C@H](C)N(CCCCCCN(C)C5CCN(c6ccc(C(=O)N[C@H]7CC[C@H](Oc8ccc(C#N)c(Cl)c8C)CC7)nn6)CC5)C[C@H]4C)ccc3nc2-1 [Compound 33, (S)-10-((Dimethylamino)methyl)-4-ethyl-4-hydroxy-3,14-dioxo-3,4,12,14-tetrahydro-1H-pyrano[3′,4′:6,7]indolizino[1,2-b]quinolin-9-yl (2R,5S)-4-(6-((1-(6-(((1r,4r)-4-(3-chloro-4-cyano-2-methylphenoxy)cyclohexyl)carbamoyl)pyridazin-3-yl)piperidin-4-yl)(methyl)amino)hexyl)-2,5-dimethylpiperazine-1-carboxylate Formate] | < 0.01 | > 1000 | 101 to 1000 | > 1 | 10 to 100 | –
CC[C@@]1(O)C(=O)OCc2c1cc1n(c2=O)Cc2cc3c(CN4CCN(CCCCCCC5CCN(c6ccc(C(=O)N[C@H]7CC[C@H](Oc8ccc(C#N)c(Cl)c8C)CC7)nn6)CC5)CC4)cccc3nc2-1 [Compound 44, N-((1r,4r)-4-(3-chloro-4-cyano-2-methylphenoxy)cyclohexyl)-6-(4-(6-(4-(((S)-4-ethyl-4-hydroxy-3,14-dioxo-3,4,12,14-tetrahydro-1H-pyrano[3′,4′:6,7]indolizino[1,2-b]quinolin-10-yl)methyl)piperazin-1-yl)hexyl)piperidin-1-yl)pyridazine-3-carboxamide] | 0.01 to 0.1 | > 1000 | 101 to 1000 | > 1 | – | 101 to 1000
CC[C@@]1(O)C(=O)OCc2c1cc1n(c2=O)Cc2c-1nc1cc(F)c(C)c3c1c2[C@@H](NC(=O)CN1CCN(C(=O)CCCCCC2CCN(c4ccc(C(=O)N[C@H]5CC[C@H](N(C)c6ccc(C#N)c(Cl)c6)CC5)nn4)CC2)CC1)CC3 [Compound No. 46] | 0.101 to 1 | > 1000 | 101 to 1000 | > 1 | – | 101 to 1000
CC[C@@]1(O)C(=O)OCc2c1cc1n(c2=O)Cc2cc3c(CN4CCN(CC5CCN(c6ccc(N7C(=S)N(c8ccc(C#N)c(Cl)c8)C(=O)C7(C)C)cc6)CC5)CC4)c(O)ccc3nc2-1 [Compound No. 53, (S)-2-chloro-4-(3-(4-(4-((4-((4-ethyl-4,9-dihydroxy-3,14-dioxo-3,4,12,14-tetrahydro-1H-pyrano[3′,4′:6,7]indolizino[1,2-b]quinolin-10-yl)methyl)piperazin-1-yl)methyl)piperidin-1-yl)phenyl)-4,4-dimethyl-5-oxo-2-thioxoimidazolidin-1-yl)benzonitrile] | 0.01 to 0.1 | 101 to 1000 | 10 to 100 | 0.01 to 0.1 | – | 10 to 100
CC[C@@]1(O)C(=O)OCc2c1cc1n(c2=O)Cc2cc3c(CN4CCN(C(=O)CCCCCC5CCN(c6ccc(C(=O)N[C@H]7CC[C@H](N(C)c8ccc(C#N)c(Cl)c8)CC7)nn6)CC5)CC4)cccc3nc2-1 [Compound 43] | 0.01 to 0.1 | > 1000 | 101 to 1000 | > 1 | – | 101 to 1000
CC[C@@]1(O)C(=O)OCc2c1cc1n(c2=O)Cc2cc3c(CN(C)C)c(OC(=O)N4C[C@H](C)N(CC5CCN(c6ccc(C(=O)N[C@H]7CC[C@H](Oc8ccc(C#N)c(Cl)c8C)CC7)nn6)CC5)C[C@H]4C)ccc3nc2-1 [Compound 32, (S)-10-((Dimethylamino)methyl)-4-ethyl-4-hydroxy-3,14-dioxo-3,4,12,14-tetrahydro-1H-pyrano[3′,4′:6,7]indolizino[1,2-b]quinolin-9-yl (2R,5S)-4-((1-(6-(((1r,4r)-4-(3-Chloro-4-cyano-2-methylphenoxy)cyclohexyl)carbamoyl)pyridazin-3-yl)piperidin-4-yl)methyl)-2,5-dimethylpiperazine-1-carboxylate Formate] | 0.101 to 1 | > 1000 | 101 to 1000 | 0.101 to 1 | 101 to 1000 | –
CC[C@@]1(O)C(=O)OCc2c1cc1n(c2=O)Cc2cc3c(CN4CCN(CCCCCCC5CCN(c6ccc(C(=O)N[C@H]7CC[C@H](Oc8ccc(C#N)c(Cl)c8C)CC7)nn6)CC5)CC4)c(O)ccc3nc2-1 [Compound No. 52] | 0.01 to 0.1 | 101 to 1000 | 10 to 100 | 0.01 to 0.1 | – | 10 to 100
CC[C@@]1(O)C(=O)OCc2c1cc1n(c2=O)Cc2cc3c(CN4CCN(C(=O)CCCCCC5CCN(c6ccc(C(=O)N[C@H]7CC[C@H](N(C)c8ccc(C#N)c(Cl)c8)CC7)nn6)CC5)CC4)c(O)ccc3nc2-1 [Compound No. 49] | 0.01 to 0.1 | > 1000 | 10 to 100 | > 1 | – | 10 to 100
CC[C@@]1(O)C(=O)OCc2c1cc1n(c2=O)Cc2c-1nc1cc(F)c(C)c3c1c2[C@@H](NC(=O)CN1CCN(CCCCCCC2CCN(c4ccc(C(=O)N[C@H]5CC[C@H](Oc6ccc(C#N)c(Cl)c6C)CC5)nn4)CC2)CC1)CC3 [Compound No. 48, N-((1r,4r)-4-(3-chloro-4-cyano-2-methylphenoxy)cyclohexyl)-6-(4-(6-(4-(2-(((1S,9S)-9-ethyl-5-fluoro-9-hydroxy-4-methyl-10,13-dioxo-2,3,9,10,13,15-hexahydro-1H,12H-benzo[de]pyrano[3′,4′:6,7]indolizino[1,2-b]quinolin-1-yl)amino)-2-oxoethyl)piperazin-1-yl)hexyl)piperidin-1-yl)pyridazine-3-carboxamide] | 0.01 to 0.1 | > 1000 | 101 to 1000 | 0.101 to 1 | – | 101 to 1000
CC[C@@]1(O)C(=O)OCc2c1cc1n(c2=O)Cc2cc3c(CN(C)C)c(OC(=O)N4C[C@H](C)N(CC5CCN(c6ccc(C(=O)N[C@H]7CC[C@H](N(C)c8ccc(C#N)c(Cl)c8)CC7)nn6)CC5)C[C@H]4C)ccc3nc2-1 [Compound No. 20, (S)-10-((Dimethylamino)methyl)-4-ethyl-4-hydroxy-3,14-dioxo-3,4,12,14-tetrahydro-1H-pyrano[3′,4′:6,7]indolizino[1,2-b]quinolin-9-yl (2R,5S)-4-((1-(6-(((1r,4r)-4-((3-chloro-4-cyanophenyl)-(methyl)amino)cyclohexyl)carbamoyl)pyridazin-3-yl)piperidin-4-yl)methyl)-2,5-dimethylpiperazine-1-carboxylate] | 0.01 to 0.1 | > 1000 | 101 to 1000 | > 1 | 101 to 1000 | –
